According to patent publication US4863951A, “Pharmacologically active amino-5,6,7,8-tetrahydronaphtho [2,3-B] furan compounds” (ADIR Et Cie, priority 1987, dated 1989):
Structures can show the parent of a compound that is named as a salt.

What was measured:
[1] = test system: interoceptive stimulus of apomorphine; assay: Drug discrimination in rats (generalization with apomorphine); assay type: in vivo; conditions: 2.5 mg.kg^-1 i.p., 30 minutes before test, hydrochloride
Method: Rats were trained to discriminate between the effect of the interoceptive stimulus of apomorphine (0.2 mg.kg^-1 i.p.) and that of physiological saline, according to a principle described by Colpaert F. in "Drug discrimination application in C.N.S. Pharmacology" Ed. Elsevier Biomedical 1982, Amsterdam. […]
Under the experimental conditions employed, the behavior shown by the animals coincides with that noted in the case of administration of apomorphine.

[2] = test system: isolation-induced aggression; assay: Antiaggressive effects: isolation-induced aggression in mice; assay type: in vivo; conditions: isolated mice, i.p., hydrochloride
Text: (§1) The antiaggressive effects of the compounds of the invention were investigated by two methods, one of them testing for an inhibition of aggressive behavior in peviously isolated mice (Yen C. Y., Stanger A. L., and Millman N, Arch. Int. Pharmacodyn. Therap. (1959), 123, p. 179-185), and the other in isolated and bulbectomized rats (Garattini S. and Sigg E. B. "Aggressive Behaviour" p. 47-55 Ed. Excerpta Medica Found., Amsterdam, 1969).
(§2) (Tables IX and X, s=significant, p<0.05).

[3] = test system: ponto-geniculo-occipital (P.G.O.) waves induced by Ro4-1284; assay: Antagonism of the ponto-geniculo-occipital (P.G.O.) waves induced by Ro4-1284; assay type: in vivo; conditions: Felis catus, iv, cats, i.v., read-out: ED50 (effective dose inhibiting by 50% the number of P.G.O. waves)
Method: (§3) The antidepressant effects of the compounds of the invention were investigated by assessing the antagonism of reserpine-induced hypothermia and the antagonism of the ponto-geniculo-occipital waves induced by the compound Ro4-1284 in cats.
This study was performed according to the method of Ruch-Monachon M. A., Jalfre M. and Haefely W. described in Arch. Int. Pharm. Therap., (1976), 219, No. 2, p. 251-346, and it enabled the effective dose (i.v) inhibiting by 50% (ED50) the number of P.G.O waves to be assessed.

[4] = test system: apomorphine-induced hypothermia; assay: Antagonism with respect to apomorphine-induced hypothermia in mice; assay type: in vivo; conditions: mice, apomorphine 1 mg.kg^-1 s.c., after 2 hours; for % antagonism of hypothermia: hydrochloride
Method: Testing for an antagonism with respect to apomorphine-induced hypothermia in mice was performed according to the method described by CHERMAT R. and PONCELET M. in J. Pharmac. (1983), 14, No. 1, p. 93-97. The dose of apomorphine administered subcutaneously was 1 mg.kg^-1. Tables VII and VIII show the percentage antagonism of the hypothermia observed after 2 hours.

[5] = test system: apomorphine-induced rearing-up; assay: Antagonism of apomorphine-induced rearing-up behavior in mice; assay type: in vivo; conditions: mice, apomorphine 0.75 mg.kg^-1 s.c.; for % inhibition of rearing-up: hydrochloride
Method: Studied in the test of antagonism of apomorphine-induced rearing-up following the subcutaneous administration of a dose of 0.75 mg.kg^-1 of this substance in mice, the compounds of general formula I act in a clear-cut manner at doses greater than or equal to 2.5 mg.kg^-1 (i.p.). The same results are observed when the compounds of general formula I are administered orally at a dose of 20 mg.kg^-1. The activity of the compounds was assessed according to the method described by Protais P, Costentin J and Schwartz J. C. in Psychopharmacology (1976), 50, p. 1-6.
(§4) (s=significant difference, p<0.05).

[6] = test system: aggression of isolated, bulbectomized rats; assay: Antiaggressive effects: aggression of isolated, bulbectomized rats; assay type: in vivo; conditions: i.p., 2.5 mg.kg^-1, hydrochloride
Text: as §1, §2

[7] = test system: reserpine-induced hypothermia; assay: Antagonism of reserpine-induced hypothermia; assay type: in vivo, Swiss CD male mice; conditions: mice, reserpine 2.5 mg.kg^-1 i.p.
Method: as §3
The study is carried out on Swiss CD male mice (27-28 g). After distribution into groups of 10 animals each, reserpine is injected intraperitoneally at a dose of 2.5 mg.kg^-1. Three hours later, the compounds undergoing trial are administered intraperitoneally. The rectal temperature of the animals is measured one hour and two hours after the second treatment, and compared with the initial temperature To of these same animals, measured immediately before the administration of the compounds undergoing trial.

[8] = test system: amphetamine-induced stereotypy; assay: Antagonism of amphetamine-induced stereotypy in rats; assay type: in vivo; conditions: 3 hours
Method: (§5) The inhibitory activity of the compounds of the invention with respect to apomorphine- or amphetamine-induced stereotypy in rats was assessed using the scale of scoring of stereotyped movements described by Quinton R. M. and Halliwell G. in Nature (1963), 200, p. 178-179.
(§6) Apomorphine or amphetamine was administered to the animals intraperitoneally at a dose of 1.5 mg.kg^-1. The percentage inhibition (-) or potentiation (+) of the stereotypy score (% ISS) shown in Tables IV and V for apomorphine corresponds to a measurement time of 30 minutes. In contrast, the percentage inhibition of the stereotypy score shown in Table VI for amphetamine corresponds to a measurement time of 3 hours.
as §4

[9] = test system: apomorphine-induced stereotypy; assay: Antagonism of apomorphine-induced stereotypy in rats; assay type: in vivo; conditions: Rattus norvegicus, ip, 0.5 h, rats, apomorphine 1.5 mg.kg^-1 i.p., 30 minutes, read-out: % ISS (inhibition (-) or potentiation (+) of the stereotypy score)
Method: as §5
as §6, with “hours. […]” for “hours.”

NC1CCc2cc3c(cc2C1)OCC3 (stereo not drawn) [Example 3, d-7-Amino-2,3,5,6,7,8-hexahydronaphtho[2,3-b]furan hydrochloride]
% of animals which generalize [1]: 88% | Number of animals showing the effect of generalization with apomorphine [1]: 8/9 | % of pairs of mice showing no sign of fighting ([2]; 2.5 mg.kg^-1): 56% | % of pairs of mice showing no sign of fighting ([2]; 5 mg.kg^-1): 78% | ED50 [3]: 0.13 mg/kg | % antagonism of hypothermia ([4]; i.p. dose 2.5): -72% | % antagonism of hypothermia ([4]; i.p. dose 5): -79% | % antagonism of hypothermia ([4]; i.p. dose 10): -91% | % antagonism of hypothermia ([4]; i.p. dose 20): -86% | % inhibition of rearing-up ([5]; i.p. dose 10 mg.kg^-1): -72% | % inhibition of rearing-up ([5]; i.p. dose 20 mg.kg^-1): -79% | % of rats rendered non-aggressive [6]: 64%

O=C(O)CCCCCCNC1CCc2cc3c(cc2C1)OCC3 (racemic) [Example 12, dl-7-{N-(2,3,5,6,7,8-Hexahydronaphtho[2,3-b]furan-7-yl)amino}heptanoic acid hydrochloride]
% inhibition of hypothermia ([7]; 5 mg.kg^-1 i.p.): -23% | % inhibition of hypothermia ([7]; 10 mg.kg^-1 i.p.): -45% | % inhibition of hypothermia ([7]; 20 mg.kg^-1 i.p.): -18% | % ISS (inhibition (-) or potentiation (+) of the stereotypy score) ([8]; i.p. dose 5 mg.kg^-1, amphetamine 1.5 mg.kg^-1 i.p.): +11% | % ISS (inhibition (-) or potentiation (+) of the stereotypy score) ([8]; i.p. dose 10 mg.kg^-1, amphetamine 1.5 mg.kg^-1 i.p.): +14% | ED50 [3]: > 2.52 mg/kg | change in vivo at 10 mg/kg ([4]; Mus musculus, ip, i.p. dose 10, read-out: % antagonism of hypothermia): -4% | change in vivo at 20 mg/kg ([4]; Mus musculus, ip, i.p. dose 20, read-out: % antagonism of hypothermia): -2% | change in vivo at 10 mg/kg ([9]; i.p. dose 10 mg.kg^-1): 19% | change in vivo at 20 mg/kg ([9]; i.p. dose 20 mg.kg^-1): -3% | change in vivo at 10 mg/kg ([5]; Mus musculus, ip, i.p. dose 10 mg.kg^-1, read-out: % inhibition of rearing-up): -17% | change in vivo at 20 mg/kg ([5]; Mus musculus, ip, i.p. dose 20 mg.kg^-1, read-out: % inhibition of rearing-up): -20%
